What was measured:
Assay type in all cases: physicochemical
[1] = Example 1 reactive solvent extraction, 70% Alamine 336/10% MIBK/20% kerosene, 25° C.; conditions: pH 2 to 3
Excerpt: A water-immiscible organic solvent (i.e., “first phase”) is subsequently mixed with the second phase, and forms a two-phase system (a water immiscible organic phase and an aqueous phase). The glycolic acid in the second phase forms a complex with the tertiary trialkyl amine in the first phase.
(§1) A variety of analytical methods can be employed to analyze the reactants and products produced using the present methods include HPLC, GC, ion selective electrodes, MS, NMR, etc. HPLC was used to measure glycolic acid and various related products. Briefly, samples are diluted with water (as needed to be within HPLC detection range) and mixed 1:1 with 0.2 M n-propanol in water (HPLC internal standard). HPLC Analytical Method: (BioRad HPX 87H ion exclusion column (BioRad, Hercules, Calif.), 300 mm×7.8 mm; 0.01 N H2SO4 mobile phase; 1.0 mL/min flow at 50° C.; 10 μL injection volume; RI detector and UV 210 nm, 20 min analysis time). HPLC Equipment: (Waters 2695 ‘Alliance’ Separations Module, 2410 Refractive Index Detector, 2487 Dual λ Absorbance Detector and Empower Pro Software (Waters Corp, Milford, Mass.).
Solvent Extraction Using Approximately 70% C8-C10 Trialkylamine in Combination with 10% Methyl Isobutyl Ketone and 20% Kerosene at 25° C.
(§2) Into a 4-mL glass reactor equipped with magnetic stir bar was placed 1 mL of a mixed solvent containing 70% (volume/volume) of trialkyl amine (Alamine® 336; Cognis Corp., Cincinnati, Ohio), 10% (volume/volume) methyl isobutyl ketone (MIBK) and 20% (volume/volume) kerosene. The pH of an aqueous solution of ammonium glycolate (5 wt % to 40 wt %) was adjusted to about pH 2 to 3 with concentrated sulfuric acid (H2SO4), then 1 mL of the resulting aqueous solution was added to the reactor. The resulting mixture was stirred for 30 minutes at 25° C.

[2] = Example 3 reactive solvent extraction, 70% Alamine 336/10% MIBK/20% kerosene, 75° C.; conditions: pH 2 to 3
Procedure: as §1
Solvent Extraction Using Approximately 70% C8-C10 Trialkylamine in Combination with 10% Methyl Isobutyl Ketone and 20% Kerosene at 75° C.
as §2, with “Alamine® 336 (Cognis),” for “of trialkyl amine (Alamine® 336; Cognis Corp., Cincinnati, Ohio),”, “to” for “to about”, “acid,” for “acid (H2SO4),”, “75°” for “25°”

[3] = Example 4 reactive solvent extraction, 90% Alamine 336/10% MIBK, 25° C.; conditions: pH 2 to 3
Procedure: as §1
Solvent Extraction Using Approximately 90% C8-C10 Trialkylamine in Combination with 10% Methyl Isobutyl Ketone at 25° C.
as §2, with “90%” for “70%”, “Alamine® 336 (Cognis) and” for “of trialkyl amine (Alamine® 336; Cognis Corp., Cincinnati, Ohio),”, “(MIBK).” for “(MIBK) and 20% (volume/volume) kerosene.”, “to” for “to about”, “acid,” for “acid (H2SO4),”

[4] = Example 22 back extraction using water from loaded solvent (70% trialkylamine/30% toluene), 140° C.; conditions: back extraction into deionized water, 70% C8-C10 trialkylamine/30% toluene, 40 psig nitrogen
Procedure: as §1
Back Extraction Using Water from a Loaded Solvent of Approximately 70% C8-C10 Trialkylamine in Combination with 30% Toluene
Into a 85-mL pressure reaction glass tube (pressure reaction vessel, from Andrews Glass Co.) equipped with magnetic stir bar and double dip tubes was placed 10 mL deionized water and 10 mL of the loaded solvent (see Example 16). The vessel was then closed, and the headspace purged with nitrogen. The resulting mixture was stirred for 60 minutes at 140° C. under 40 psig (˜275.8 kPa) nitrogen. The stirring was stopped and the two phases allowed to separate at 140° C., then the organic phase was sampled under pressure through the top dip tube into a Hoke cylinder, and aqueous phases was sampled under pressure through the bottom dip tube into another Hoke cylinder.

[5] = initial 3.6 wt % glycolic acid in aqueous phase
[6] = initial 8.5 wt % glycolic acid in aqueous phase
[7] = initial 12.1 wt % glycolic acid in aqueous phase
[8] = initial 16.1 wt % glycolic acid in aqueous phase
[9] = initial 20.6 wt % glycolic acid in aqueous phase
[10] = initial 25.1 wt % glycolic acid in aqueous phase
[11] = initial 29.1 wt % glycolic acid in aqueous phase
[12] = initial 32.8 wt % glycolic acid in aqueous phase

Partition coefficient of glycolic acid (organic wt %/aqueous wt %) [1, 5]: 1.1
Partition coefficient of glycolic acid (organic wt %/aqueous wt %) [1, 6]: 1.1
Partition coefficient of glycolic acid (organic wt %/aqueous wt %) [1, 7]: 1.0
Partition coefficient of glycolic acid (organic wt %/aqueous wt %) [1, 8]: 0.94
Partition coefficient of glycolic acid (organic wt %/aqueous wt %) [1, 9]: 0.90
Partition coefficient of glycolic acid (organic wt %/aqueous wt %) [1, 10]: 0.85
Partition coefficient of glycolic acid (organic wt %/aqueous wt %) [1, 11]: 0.73
Partition coefficient of glycolic acid (organic wt %/aqueous wt %) [1, 12]: 0.67
Partition coefficient (wt % org./wt % aq.) [2, 5]: 0.16
Partition coefficient (wt % org./wt % aq.) [2, 6]: 0.22
Partition coefficient (wt % org./wt % aq.) [2, 9]: 0.49
Partition coefficient (wt % org./wt % aq.) [2, 10]: 0.56
Partition coefficient (wt % org./wt % aq.) [2, 11]: 0.54
Partition coefficient (wt % org./wt % aq.) [2, 12]: 0.52
Partition coefficient (wt % org./wt % aq.) [3, 5]: 1.98
Partition coefficient (wt % org./wt % aq.) [3, 6]: 1.57
Partition coefficient (wt % org./wt % aq.) [3, 7]: 1.38
Partition coefficient (wt % org./wt % aq.) [3, 8]: 1.44
Partition coefficient (wt % org./wt % aq.) [3, 9]: 1.13
Partition coefficient (wt % org./wt % aq.) [3, 10]: 1.19
Partition coefficient (wt % org./wt % aq.) [3, 11]: 1.14
Partition coefficient (wt % org./wt % aq.) [3, 12]: 0.92
Partition coefficient (wt % org./wt % aq.) ([4]; initial 3.7 wt % glycolic acid in loaded solvent): 0.26
Partition coefficient (wt % org./wt % aq.) ([4]; initial 10.7 wt % glycolic acid in loaded solvent): 0.30
Partition coefficient (wt % org./wt % aq.) ([4]; initial 14.2 wt % glycolic acid in loaded solvent): 0.38
Partition coefficient (wt % org./wt % aq.) ([4]; initial 15.7 wt % glycolic acid in loaded solvent): 0.28
SMILES: O=C(O)CO [glycolic acid]

— US20060160197A1 (priority 2004, published 2006)
